SMILES strings stand for the structures. pIC50: −log10 of the molar value.

Twelve compounds from US11111237B2, “Bicyclic compound and use thereof” (SK BIOPHARMACEUTICALS CO., LTD., priority 2019, dated 2021) can be followed below.

Chain of PRMT5-MEP50 enzyme complex (O14744 2-637): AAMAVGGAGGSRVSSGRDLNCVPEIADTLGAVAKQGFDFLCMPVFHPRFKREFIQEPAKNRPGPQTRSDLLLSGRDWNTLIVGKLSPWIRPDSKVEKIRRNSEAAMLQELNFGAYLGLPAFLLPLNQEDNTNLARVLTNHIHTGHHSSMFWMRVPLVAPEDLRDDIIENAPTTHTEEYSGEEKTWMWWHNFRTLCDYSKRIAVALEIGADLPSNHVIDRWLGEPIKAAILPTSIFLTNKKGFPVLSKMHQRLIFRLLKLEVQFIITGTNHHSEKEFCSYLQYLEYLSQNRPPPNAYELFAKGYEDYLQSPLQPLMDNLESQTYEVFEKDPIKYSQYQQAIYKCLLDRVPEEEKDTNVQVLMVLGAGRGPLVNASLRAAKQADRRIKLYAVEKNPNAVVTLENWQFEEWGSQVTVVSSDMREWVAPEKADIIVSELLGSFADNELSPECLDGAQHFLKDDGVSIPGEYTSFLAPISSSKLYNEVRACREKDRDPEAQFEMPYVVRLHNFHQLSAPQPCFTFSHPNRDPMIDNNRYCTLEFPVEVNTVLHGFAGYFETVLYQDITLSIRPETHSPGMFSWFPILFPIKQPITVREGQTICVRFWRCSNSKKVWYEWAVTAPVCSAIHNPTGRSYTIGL
Chain of PRMT5-MEP50 enzyme complex (Q9BQA1 2-342 partner): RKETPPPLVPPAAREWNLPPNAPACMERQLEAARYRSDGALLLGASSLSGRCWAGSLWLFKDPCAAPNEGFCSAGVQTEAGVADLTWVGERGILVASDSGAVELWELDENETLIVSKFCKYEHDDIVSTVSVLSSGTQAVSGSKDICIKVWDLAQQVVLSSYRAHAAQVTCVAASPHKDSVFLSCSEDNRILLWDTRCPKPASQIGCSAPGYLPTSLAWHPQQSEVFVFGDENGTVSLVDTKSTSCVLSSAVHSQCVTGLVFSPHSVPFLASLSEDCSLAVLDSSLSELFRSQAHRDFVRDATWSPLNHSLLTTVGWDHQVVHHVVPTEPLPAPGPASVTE

This test has as its target PRMT5-MEP50 enzyme complex (Homo sapiens (Human), UniProt O14744). Description: PRMT5 enzyme activity in vitro assay (methylation of histone H4R3, ELISA absorbance at 450 nm). Format: biochemical. The conditions noted are these: SAM, histone H4 peptide, room temperature 2 hours, 8 points from 10 μM to 0.128 nM. A digest of the protocol:
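IC50 was derived from ELISA absorbance at 450 nm, using primary and HRP antibodies against H4R3 methylation on immobilised histone H4 peptide (residues 1-20). Compounds (10 μM to 0.128 nM, 8 points, 1:5) were incubated 2 h at room temperature with the PRMT5-MEP50 complex and SAM, diluted to 5 μg/mL and 2 μM respectively.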
In general terms: In an ELISA, binding on a coated surface is turned into a signal by an enzyme label.
Take `O=C1c2ccc(OCc3ccc(F)cn3)cc2OCCN1C[C@H](O)CN1CCc2ccccc2C1` [Example 63, 4-[(2R)-3-(3,4-dihydro-1H-isoquinolin-2-yl)-2-hydroxy-propyl]-8-[(5-fluoro-2-pyridyl)methoxy]-2,3-dihydro-1,4-benzoxazepin-5-one]: the pIC50 (usually the negative decadic logarithm of the IC50, by convention in mol/L) was 7.00 to 9.00. `O=C1c2ccc(OC3CCOCC3)cc2OCCN1C[C@H](O)CN1CCc2ccccc2C1` [Example 64, 4-[(2R)-3-(3,4-dihydro-1H-isoquinolin-2-yl)-2-hydroxy-propyl]-8-tetrahydropyran-4-yloxy-2,3-dihydro-1,4-benzoxazepin-5-one]: the pIC50 is 7.00 to 9.00. The compound `O=C1c2ccc(OCC3CCCCO3)cc2OCCN1C[C@H](O)CN1CCc2ccccc2C1` (stereo partly drawn) [Example 65, 4-[(2R)-3-(3,4-dihydro-1H-isoquinolin-2-yl)-2-hydroxy-propyl]-8-(tetrahydropyran-2-ylmethoxy)-2,3-dihydro-1,4-benzoxazepin-5-one] gave a pIC50 of 6.00 to 7.00.

As for `O=C1c2ccc(OCC3CCCCC3)cc2OCCN1C[C@H](O)CN1CCc2ccccc2C1` [Example 66, 8-(cyclohexylmethoxy)-4-[(2R)-3-(3,4-dihydro-1H-isoquinolin-2-yl)-2-hydroxy-propyl]-2,3-dihydro-1,4-benzoxazepin-5-one], the pIC50 was 6.00 to 7.00.

`O=C1c2ccc(OCC3CCCO3)cc2OCCN1C[C@H](O)CN1CCc2ccccc2C1` (stereo partly drawn) [Example 67, 4-[(2R)-3-(3,4-dihydro-1H-isoquinolin-2-yl)-2-hydroxy-propyl]-8-(tetrahydrofuran-2-ylmethoxy)-2,3-dihydro-1,4-benzoxazepin-5-one] had a negative-log IC50 (pIC50) of 6.00 to 7.00.

The compound `CN1CCCC(Oc2ccc3c(c2)OCCN(C[C@H](O)CN2CCc4ccccc4C2)C3=O)C1` (stereo partly drawn) [Example 68, 4-[(2R)-3-(3,4-dihydro-1H-isoquinolin-2-yl)-2-hydroxy-propyl]-8-[(1-methyl-3-piperidyl)oxy]-2,3-dihydro-1,4-benzoxazepin-5-one] gave a pIC50 of 6.00 to 7.00. In turn, `CCN1CCCC(Oc2ccc3c(c2)OCCN(C[C@H](O)CN2CCc4ccccc4C2)C3=O)C1` (stereo partly drawn) [Example 69, 4-[(2R)-3-(3,4-dihydro-1H-isoquinolin-2-yl)-2-hydroxy-propyl]-8-[(1-ethyl-3-piperidyl)oxy]-2,3-dihydro-1,4-benzoxazepin-5-one] had a negative-log IC50 (pIC50) of 7.00 to 9.00. To `CC(=O)N1CCC(COc2ccc3c(c2)OCCN(C[C@H](O)CN2CCc4ccccc4C2)C3=O)CC1` [Example 70, 8-[(1-acetyl-4-piperidyl)methoxy]-4-[(2R)-3-(3,4-dihydro-1H-isoquinolin-2-yl)-2-hydroxy-propyl]-2,3-dihydro-1,4-benzoxazepin-5-one] belongs 6.00 to 7.00; to `O=C1c2ccc(OCC(F)(F)F)cc2OCCN1C[C@H](O)CN1CCc2ccccc2C1` [Example 71, 4-[(2R)-3-(3,4-dihydro-1H-isoquinolin-2-yl)-2-hydroxy-propyl]-8-(2,2,2-trifluoroethoxy)-2,3-dihydro-1,4-benzoxazepin-5-one], 6.00 to 7.00; to `CN(C)CCOc1ccc2c(c1)OCCN(C[C@H](O)CN1CCc3ccccc3C1)C2=O` [Example 72, 4-[(2R)-3-(3,4-dihydro-1H-isoquinolin-2-yl)-2-hydroxy-propyl]-8-[2-(dimethylamino)ethoxy]-2,3-dihydro-1,4-benzoxazepin-5-one], 6.00 to 7.00.

Compound `O=C1c2ccc(OCCN3CCOCC3)cc2OCCN1C[C@H](O)CN1CCc2ccccc2C1` [Example 73, 4-[(2R)-3-(3,4-dihydro-1H-isoquinolin-2-yl)-2-hydroxy-propyl]-8-(2-morpholinoethoxy)-2,3-dihydro-1,4-benzoxazepin-5-one] had a pIC50 of 6.00 to 7.00.

Take `O=C1CCCN1CCOc1ccc2c(c1)OCCN(C[C@H](O)CN1CCc3ccccc3C1)C2=O` [Example 74, 4-[(2R)-3-(3,4-dihydro-1H-isoquinolin-2-yl)-2-hydroxy-propyl]-8-[2-(2-oxopyrrolidin-1-yl)ethoxy]-2,3-dihydro-1,4-benzoxazepin-5-one]: the pIC50 is 6.00 to 7.00.
